Source: the C3SDB collision cross section collection
Counter-ions that a name gives are not always drawn.

Settings: instrument: TW, calibrated with polyalanine and drug standards

| collision cross section (N2) ([M+H]+) [Å²] | SMILES | also measured |
| --- | --- | --- |
| 153.5 | CC(C)=CCOc1cc2oc(=O)ccc2cc1O [PRENYLETIN] |  |
| 147.3 | O=c1cc(-c2ccccc2)oc2cccc(O)c12 [PRIMULETIN] |  |
| 177.8 | CC(=O)[C@H]1CC[C@H]2[C@@H]3CCC4=CC(=O)CC[C@]4(C)[C@H]3CC[C@]12C [PROGESTERONE] |  |
| 181.1 | CCCN(CCC)C(=O)C(CCC(=O)O)NC(=O)c1ccccc1 (stereo not given) [PROGLUMIDE] |  |
| 161.5 | CC(C)NCC(O)COc1cccc2ccccc12 (stereo not given) [PROPRANOLOL] |  |
| 238.8 | C=Cc1c(C)c2cc3[nH]c(cc4nc(cc5nc(cc1[nH]2)C(C)=C5CCC(=O)O)C(CCC(=O)O)=C4C)c(C)c3C=C [PROTOPORPHYRIN IX] |  |
| 153.5 | CC1=CCc2c(cc3oc(C)cc(=O)c3c2O)OC1 [PTAEROXYLIN] |  |
| 167 | CN/C(=C\[N+](=O)[O-])NCCSCc1ccc(CN(C)C)o1 [RANITIDINE] |  |
| 185 | O=C(NC(Cc1cc(=O)[nH]c2ccccc12)C(=O)O)c1ccc(Cl)cc1 (stereo not given) [REBAMIPIDE] |  |
| 220.7 | Cc1nc2sccn2c(=O)c1CCN1CCC(=C(c2ccc(F)cc2)c2ccc(F)cc2)CC1 [RITANSERIN] |  |
| 136.9 | Cn1c([N+](=O)[O-])cnc1COC(N)=O [RONIDAZOLE] |  |
| 162.5 | CCCN(CCC)CCc1cccc2c1CC(=O)N2 [ROPINIROLE] |  |
| 169.2 | O=C(/C=C/c1ccc(O)c(O)c1)O[C@H](Cc1ccc(O)c(O)c1)C(=O)O [ROSMARINIC ACID] |  |
| 169.1 | O=C1C=CC(=C(c2ccc(O)cc2)c2ccc(O)cc2)C=C1 [ROSOLIC ACID] |  |
| 143.6 | C=C[C@H](C1=CC(=O)C=CC1=O)c1ccccc1 [S-DALBERGIONE] |  |
| 135.2 | Cc1ncc([N+](=O)[O-])n1CC(C)O (stereo not given) [SECNIDAZOLE] |  |
| 293.2 | CO[C@H]1C[C@H](O[C@@H]2/C(C)=C/C[C@@H]3C[C@@H](C[C@]4(CC[C@H](C)[C@@H](C5CCCCC5)O4)O3)OC(=O)[C@@H]3C=C(C)/C(=N/O)[C@H]4OC/C(=C\C=C\[C@@H]2C)[C@]43O)O[C@@H](C)[C@@H]1O [SELAMECTIN] |  |
| 213.6 | COc1cc([C@H]2Oc3cc([C@H]4Oc5cc(O)cc(O)c5C(=O)[C@@H]4O)ccc3O[C@@H]2CO)ccc1O [SILIBININ] |  |
| 186.4 | COc1ccc(-c2cc(=O)c3c(OC)c(OC)c(OC)cc3o2)cc1OC [SINENSETIN] |  |
| 207.7 | C[C@@H]1CC[C@@]2(OC1)O[C@H]1C[C@H]3[C@@H]4CC[C@@H]5C[C@@H](O)CC[C@]5(C)[C@H]4CC[C@]3(C)[C@H]1[C@@H]2C [SMILAGENIN] |  |

Second part, the compound before the results:

| SMILES | collision cross section (N2) ([M+H]+) [Å²] | also measured |
| --- | --- | --- |
| C#C[C@]1(OC(C)=O)CC[C@H]2[C@@H]3CCC4=CC(=O)CC[C@@H]4[C@H]3CC[C@@]21C [NORETHINDRONE ACETATE] | 186.3 |  |
| C#C[C@]1(O)CC[C@H]2[C@@H]3CCC4=CC(=O)CC[C@@H]4[C@H]3CC[C@@]21C [NORETHINDRONE] | 174.4 |  |
| CC1COc2c(N3CCN(C)CC3)c(F)cc3c(=O)c(C(=O)O)cn1c23 (stereo not given) [OFLOXACIN] | 188.5 |  |
| C[C@@H]1CN(c2c(F)c(F)c3c(=O)c(C(=O)O)cn(C4CC4)c3c2F)C[C@H](C)N1 [ORBIFLOXACIN] | 196.7 |  |
| CCCCCCCCCCC[C@@H](C[C@@H]1OC(=O)[C@H]1CCCCCC)OC(=O)[C@H](CC(C)C)NC=O [ORLISTAT] | 241.2 |  |
| Cc1ncc([N+](=O)[O-])n1CC(O)CCl (stereo not given) [ORNIDAZOLE] | 141.7 |  |
| Cc1cc(O)cc(O)c1C(=O)O [ORSELLINIC ACID] | 129.1 |  |
| C[C@@H]1O[C@@H](O[C@H]2C[C@@H](O)[C@]3(CO)[C@H]4[C@H](O)C[C@]5(C)[C@@H](C6=CC(=O)OC6)CC[C@]5(O)[C@@H]4CC[C@]3(O)C2)[C@H](O)[C@H](O)[C@H]1O [OUABAIN] | 234 |  |
| O=C(O)CCc1nc(-c2ccccc2)c(-c2ccccc2)o1 [OXAPROZIN] | 169.7 |  |
| NC(=O)N1c2ccccc2CC(=O)c2ccccc21 [OXCARBAZEPINE] | 152.7 |  |
| CNCC(O)c1ccc(O)cc1 (stereo not given) [OXEDRINE] |  | collision cross section (N2) ([M+H-H2O]+): 132 Å² |
| CCN(CC)CCOCCOC(=O)C(CC)(CC)c1ccccc1 [OXELAIDIN CITRATE] | 178.3 |  |
| COC(=O)Nc1nc2ccc(S(=O)c3ccccc3)cc2[nH]1 (stereo not given) [OXFENDAZOLE] | 174.1 |  |
| CCCOc1ccc2nc(NC(=O)OC)[nH]c2c1 [OXIBENDAZOLE] | 157.5 |  |
| CCn1cc(C(=O)O)c(=O)c2cc3c(cc21)OCO3 [OXOLINIC ACID] | 149.1 |  |
| CC(=O)OC1C(=O)C2(C)C(O)CC3OCC3(OC(C)=O)C2C(OC(=O)c2ccccc2)C2(O)CC(OC(=O)C(O)C(NC(=O)c3ccccc3)c3ccccc3)C(C)=C1C2(C)C (stereo not given) [PACLITAXEL] | 278.9 |  |
| COc1ccc(-c2cc(=O)c3c(O)c(OC)c(O[C@@H]4O[C@H](CO[C@@H]5O[C@@H](C)[C@H](O)[C@@H](O)[C@H]5O)[C@@H](O)[C@H](O)[C@H]4O)cc3o2)cc1 [PECTOLINARIN] | 236.5 |  |
| N#Cc1ccc2c(c1)N(CCCN1CCC(O)CC1)c1ccccc1S2 [PERICIAZINE] | 186.6 |  |
| CO[C@H]1[C@H](O)[C@H](O[C@H]2CC[C@@]3(C=O)[C@H](CC[C@@H]4[C@@H]3CC[C@]3(C)[C@@H](C5=CC(=O)OC5)CC[C@]43O)C2)O[C@@H](C)[C@@H]1O [PERUVOSIDE] | 239.4 |  |
| NC(=O)NC(=O)Cc1ccccc1 [PHENACEMIDE] | 128.3 |  |

| SMILES | collision cross section (N2) ([M+H]+) [Å²] | also measured |
| --- | --- | --- |
| O=C1c2ccccc2C(=O)C1c1ccccc1 [PHENINDIONE] | 145.9 |  |
| OCCc1ccccc1 [PHENYLETHYL ALCOHOL] | 121.2 |  |
| O=C(CCc1ccc(O)cc1)c1c(O)cc(O)cc1O [PHLORETIN] | 160.7 |  |
| O=C(CCc1ccc(O)cc1)c1c(O)cc(O)cc1O[C@@H]1O[C@H](CO)[C@@H](O)[C@H](O)[C@H]1O [PHLORIDZIN] |  | collision cross section (N2) ([M+Na]+): 194.4 Å² |
| O=C(O)c1ccccc1C(=O)Nc1ccc(S(=O)(=O)Nc2nccs2)cc1 [PHTHALYLSULFATHIAZOLE] | 194.9 |  |
| CC1=C(C/C=C(\C)CCC[C@H](C)CCC[C@H](C)CCCC(C)C)C(=O)c2ccccc2C1=O [PHYTONADIONE] | 220 |  |
| CC(C)NCC(O)COc1cccc2[nH]ccc12 (stereo not given) [PINDOLOL] | 157.6 |  |
| NC(=O)C1(N2CCCCC2)CCN(CCCC(=O)c2ccc(F)cc2)CC1 [PIPAMPERONE] | 192.6 |  |
| O=C(O)c1ccc2c(c1)OCO2 [PIPERONYLIC ACID] | 124.5 |  |
| COc1cc(/C=C/C(=O)N2CCC=CC2=O)cc(OC)c1OC [PIPLARTINE] | 176.1 |  |
| C[C@]12C=CC(=O)C=C1CC[C@@H]1[C@@H]2[C@@H](O)C[C@@]2(C)[C@H]1CC[C@]2(O)C(=O)CO [PREDNISOLONE] | 183.7 |  |
| CC[C@@]1(O)C[C@H](O[C@H]2C[C@H](N(C)C)[C@H](O)[C@H](C)O2)c2c(cc3c(c2O)C(=O)c2c(O)ccc(O)c2C3=O)[C@H]1C(=O)OC [PYRROMYCIN] | 233.9 |  |
| C[C@@H]1O[C@@H](Oc2c(-c3ccc(O)c(O)c3)oc3cc(O)cc(O)c3c2=O)[C@H](O)[C@H](O)[C@H]1O [QUERCITRIN] |  | collision cross section (N2) ([M+Na]+): 205.9 Å² |
| C=C[C@H]1CN2CC[C@H]1C[C@@H]2[C@@H](OC(=O)OCC)c1ccnc2ccc(OC)cc12 [QUININE ETHYL CARBONATE] | 196.7 |  |
| CNc1ccccc1C(=O)N1CCc2c([nH]c3ccccc23)C1=O [RHETSININE] |  | collision cross section (N2) ([M+H-H2O]+): 166.5 Å² |
| OCc1ccccc1O[C@@H]1O[C@H](CO)[C@@H](O)[C@H](O)[C@H]1O [SALICIN] |  | collision cross section (N2) ([M+Na]+): 163.2 Å² |
| COc1cc2c(cc1O)CCNC2C (stereo not given) [SALSOLINE] | 145.8 |  |
| O=C1C=C2C=C[C@@H]3C[C@@]2(O1)[C@H]1CCCCN31 [SECURININE] | 146.4 |  |
| CO[C@H]1C[C@@H]2CC[C@@H](C)[C@@](O)(O2)C(=O)C(=O)N2CCCC[C@H]2C(=O)O[C@H]([C@H](C)C[C@@H]2CC[C@@H](O)[C@H](OC)C2)CC(=O)[C@H](C)/C=C(\C)[C@@H](O)[C@@H](OC)C(=O)[C@H](C)C[C@H](C)/C=C/C=C/C=C/1C [SIROLIMUS] |  | collision cross section (N2) ([M+Na]+): 311.6 Å² |
| CC(C)=CCC/C(C)=C/CC/C(C)=C/CC/C(C)=C/CC/C(C)=C/CC/C(C)=C/CC/C(C)=C/CC/C(C)=C/CC/C(C)=C/CO [SOLANESOL] |  | collision cross section (N2) ([M+H-H2O]+): 256.8 Å² |
